Source: patent US20260176300A1, “N-ARYLPYRAZOLE NOD2 AGONISTS AS PROMOTERS OF IMMUNE CHECKPOINT INHIBITOR THERAPY” (THE SCRIPPS RESEARCH INSTITUTE, priority 2022, published 2026)
Entries after “also recorded” stand apart in the source; their conditions may differ.

Tested on: B16-F10 subcutaneous tumors
Experiment: B16-F10 tumor growth assay with anti-PD-L1 co-treatment
Assay type: in vivo, mice
Conditions: for B16 tumor growth over time: wild-type C57BL/6 mice, 100 μg α-PD-L1 and 100 μg compound i.p. every other day
Protocol: FIG. 3(A-H). NOD2 agonist TT030 activates cytokine production in vitro and improves immune checkpoint inhibitor treatment of tumor growth in vivo. A-D, Measurements of secreted cytokine levels from human peripheral mononuclear blood cells (PMBCs) treated with the indicated compounds for 24 h without or with lipopolysaccharide (LPS). E, Structures of TT030 and its enantiomer (TT030-ent). F, Activation of NOD1- and NOD2-expressing HEK-293T cells with the indicated compounds. C12-iE-DAP is a lipophilic version of the NOD1 agonist, iE-DAP. G, Growth profiles of B16-F10 subcutaneous tumors in wild-type C57BL/6 mice treated with 100 μg α-PD-L1 and 100 μg of the indicated compounds every other day starting at Day 7. H, Growth profiles of B16-F10 subcutaneous tumors in wild-type or Nod2^−/− C57BL/6 mice treated with 100 μg α-PD-L1 and 100 μg TT030 every other day starting at Day 7. Cytokine secretion assays and NOD activation assays were analyzed using a one-way ANOVA with Dunnett's multiple comparisons test compared to the DMSO control. Longitudinal tumor growth assays were analyzed using linear mixed-effects model analysis on the log transformed data. ns=not significant, *P<0.05, **P<0.01, ***P<0.001, ****P<0.0001.
Animals. Specific pathogen-free, eight-week old male C57BL/6J (B6, 000664) and B6.129S1—Nod2^tm1Flv/J (Nod2^−/−, 005763 from Flavell Lab, Yale School of Medicine) were obtained from The Jackson Laboratory. Animals were housed in autoclaved caging with SaniChip bedding and enrichment for nest building on a 12-hour light/dark cycle. Animals were provided gamma-irradiated chow (LabDiet, 5053) and sterile drinking water ad libitum. Animal care and experiments were conducted in accordance with NIH guidelines and approved by the Institutional Animal Care and Use Committee at Scripps Research (Protocol AUP-21-095).
Tumor growth assay. B16-F10 cells were subcultured on the day prior to harvesting for tumor inoculation. On the day of injection, cells were harvested using TrypLE Express, washed and resuspended in cold PBS, and counted with a hemocytometer. Cells were then resuspended at 2×10^6 cells mL^−1 in PBS and mixed 1:1 with Matrigel matrix (Corning; growth factor reduced, 356231). Cell suspensions were kept on ice prior to injection. Animals were anesthetized using 3% isoflurane, and their right flank was shaved with hair clippers. Animals were then subcutaneously injected with 100 μL of the cell suspension on their mid-right flank (1×10^5 cells per injection). Once tumors were established at roughly 25-100 mm^3, tumor volume was measured every other day. Digital calipers were used to measure the length and width of each tumor, and tumor volume was calculated as length×[…], where width was the smaller of the two measurements. […]

**Q.** Which “B16 tumor growth over time” value does the source give for CC(=O)N[C@H]1C(O)O[C@H](CO)[C@@H](O)[C@@H]1O[C@H](C)C(=O)N[C@@H](C)C(=O)N[C@H](CCC(=O)O)C(N)=O (stereo partly drawn) [MDP, (4R)-4-((2S)-2-((2R)-2-(((3R,4R,5S,6R)-3-acetamido-2,5-dihydroxy-6-(hydroxymethyl)tetrahydro-2H-pyran-4-yl)oxy)propanamido)propanamido)-5-amino-5-oxopentanoic acid, reference compound] here?
**A.** Its value is “significantly inhibited tumor growth”.

**Q.** CCOC(=O)CC[C@@H](NC(=O)[C@@H](NC(=O)c1c(C)nn(-c2cc[nH]c(=O)c2)c1C)C(C)C)C(=O)OCC [TT030, Diethyl (3,5-dimethyl-1-(2-oxo-1,2-dihydropyridin-4-yl)-1H-pyrazole-4-carbonyl)-L-valyl-D-glutamate] was tested. Which “Anti-tumor activity in Nod2−/− mice” value (Nod2−/− vs. wild-type C57BL/6 mice, 100 μg α-PD-L1 and 100 μg TT030 every other day) did it give?
**A.** The value was “loss in the anti-tumor activity”.

**Q.** And the “B16 tumor growth over time” value?
**A.** Its value is “anti-tumor activity was also observed; also recorded: equivalent anti-tumor activity as MDP”.
